Laboratory results: patent publication US20240207292A1, “BORONIC ACID COMPOUNDS, COMPOSITIONS AND METHODS” (Trustees of Tufts College, priority 2021, published 2024)

What was measured:
[1] = Stability of bortezomib with excipients in water, propyleneglycol (PG) or butylene glycol (BG) at 1 mg/mL, 50° C.; assay type: physicochemical; conditions: in the absence of N-Acetyl-L-methionine
Method: In Examples 1-3 below, Tables 1, 2 and 3 summarize the effectiveness of sulfur compounds in stabilizing bortezomib such as against oxidation and decomposition reactions. For each of the following Examples 1-3, the following procedures were used: Samples preparation: 100 mg of the API (active pharmaceutical ingredient) was suspended into 100 mL of water or other ratioed solvents, mixed well by using a vortex mixer and sonicator (with gentle warm if necessary) to make a 1 mg/mL of solution A. 10 mg of each excipient was weighed into avial, and 1 mL of solution A was added, mixed well to give the test solution B (10:1 of excipient/API). Took 100 μL of solution B and diluted into 1 mL with solution A to give the test solution C (1:1 of excipient/API). Took 100 μL of solution C and diluted into 1 mL with solution A to give the test solution D (0.1:1 of excipient/API). For solid powderform of Bortezomib with the excipients, method in US 2005/0282742 A1 was adopted. […]
Aqueous formulations of bortezomib together with a number of sulfur-containing compounds in varying weight ratios were evaluated for stability over time based on purity of Bortezomib in water, propyleneglycol (PG) or butylene glycol (BG) at 1 mg/mL, 50° C.

[2] = lyophilized powder reconstituted before administration; cited from earlier work

- decomposition of bortezomib [1]: 67%
SMILES: CC(C)C[C@H](NC(=O)[C@H](Cc1ccccc1)NC(=O)c1cnccn1)B(O)O [Bortezomib, reference compound]
- time the reconstituted solution is sufficiently stable [2]: up to 8 hours
